Results on six molecules are retold here after patent publication US7803792B2, “Quaternary ammonium compounds” (Asahi Kasei Pharma Corporation, priority 2002, dated 2010).

The test system of data set [1] is bile duct partial ligation model. Kind of data set: Cholestasis-caused hepatopathy model, bile duct partial ligation, IBAT inhibiting compounds, blood after 24 hours (Test Example 13). The data set is classed as in vivo, rat. The note with it: Table 17; 10 mg/kg oral; blood 24 hours after administration; N = 3, average ± standard error. On the procedure:
“Cholestasis-Caused Hepatopathy” Model (Bile Duct Partial Ligation Model)
In this test example, the model of cholestasis-caused hepatopathy was tested according to the method described in Test Example 5.
That is, the abdomens of 8 to 10 weeks old SD (IGS) male rats were cut open under anesthesia with pentobarbital and partial ligation surgery of the bile duct was carried out. After the surgery, 200 mg/kg of bile acid and an IBAT inhibiting compound were forcibly orally administered to the rats (each n=3). As a control group, physiological saline […] was administered (n=3). To observe the effect of the partial ligation surgery, a sham group (the abdomen was cut open under anesthesia with pentobarbital but partial ligation surgery of the bile duct was not carried out) and an untreated group were established (each n=3). After 24 hours from the administration a blood sample was taken from the abdominal aorta and AST, ALT, and ALP in the blood were measured using the method described in Test Example 5.

Data set [2] has as its system bile acid loaded model. Kind of data set: Cholestasis-caused hepatopathy model, bile acid loaded model, 4.5 days (Test Example 14). Format: in vivo, rat. The note with it: Table 19; 10 mg/kg; administration period 4.5 days; N = 6, average ± standard error. On the procedure:
“Cholestasis-Caused Hepatopathy” Model (Bile Acid Loaded Model)
In this test example, the model of hepatopathy due to loading of bile acid was carried out similarly to the protocol B in Test Example 5. However, the administration period in this test example was changed to 4.5 days. […] Therefore, the compounds have proven to be useful as drugs for the treatment and prevention of cholestasis-caused hepatopathy, in particular as drugs for the treatment and prevention of primary biliary cirrhosis and primary sclerosing cholangitis. Moreover, the compounds of other examples of the present invention not shown in Tables 18 and 19 can be expected to have excellent ameliorating effects on cholestasis-caused hepatopathy.

The target in data set [3] is T1, human IBAT (Homo sapiens, UniProt Q12908).
T1 construct: expressed in transfected cells; host or cells: Cos 7
T1 sequence (Q12908 1-348): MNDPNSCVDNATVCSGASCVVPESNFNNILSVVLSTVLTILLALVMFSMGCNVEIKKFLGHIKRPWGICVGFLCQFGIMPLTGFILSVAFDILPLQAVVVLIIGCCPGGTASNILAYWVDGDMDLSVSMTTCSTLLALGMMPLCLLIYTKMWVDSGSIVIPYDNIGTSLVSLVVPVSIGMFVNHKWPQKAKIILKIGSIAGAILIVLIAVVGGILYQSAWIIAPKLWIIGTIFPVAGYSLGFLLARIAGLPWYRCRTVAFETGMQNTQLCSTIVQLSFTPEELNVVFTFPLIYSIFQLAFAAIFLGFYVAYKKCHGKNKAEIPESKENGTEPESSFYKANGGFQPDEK
Kind of data set: In vitro assay of temporarily expressed human IBAT transporter using Cos 7 cells (Test Example 8). The note with it: Cos 7 cells temporarily expressing human IBAT; [3H] taurocholate 8 μM, 37° C., 60 minutes. The data set is classed as cell-based. The procedure, abridged:
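Cos 7 cells transiently transfected with human or rat IBAT cDNA, assayed one day later in Hank's buffer with 25 mM glucose, 10 mM HEPES (pH 7.4) plus compound. Uptake of 8 μM [^3H]taurocholate over 60 min at 37 °C, stopped with 1 mM taurocholate washes; lysate radioactivity by scintillation counting.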

Data set [4] has as its target T2, rat IBAT (Rattus norvegicus, UniProt Q62633).
T2 construct: expressed in transfected cells; host or cells: Cos 7
T2 sequence (Q62633 1-348): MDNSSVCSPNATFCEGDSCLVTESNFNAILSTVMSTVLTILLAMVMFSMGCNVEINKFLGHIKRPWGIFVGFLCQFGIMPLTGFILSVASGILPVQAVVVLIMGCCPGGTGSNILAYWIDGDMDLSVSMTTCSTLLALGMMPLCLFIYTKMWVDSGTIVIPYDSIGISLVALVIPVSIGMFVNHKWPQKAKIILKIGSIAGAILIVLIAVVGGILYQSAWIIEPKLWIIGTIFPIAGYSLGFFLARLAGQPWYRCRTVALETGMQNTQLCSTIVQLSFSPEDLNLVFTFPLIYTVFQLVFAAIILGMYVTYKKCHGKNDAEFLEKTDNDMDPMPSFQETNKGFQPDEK
Put plainly: In vitro assay of temporarily expressed rat IBAT transporter using Cos 7 cells (Test Example 8). Format: cell-based. Particulars: Cos 7 cells temporarily expressing rat IBAT; [3H] taurocholate 8 μM, 37° C., 60 minutes. On the procedure:
In Vitro Assay of Compounds Which Inhibit Temporarily Expressed Human IBAT Transporter or Rat IBAT Transporter Using Cos 7 Cells
In this test example, the in vitro assay of the compounds which inhibit temporarily expressed human IBAT transporter or rat IBAT transporter using Cos cells was carried out according to the method described in Am. J. Physiol., 274, G157-169.
That is, […] Cos 7 were inoculated on a 24-well cell plate. One day later, 0.3 μg per well of cDNA of a human IBAT or a rat IBAT was transfected by using FuGENE6 (manufactured by ROCHE PHARMACEUTICAL CO., LTD.). For the assay, the cells cultured for one day after the transfection were used and the following procedure was followed. The cells were washed once with an assay buffer, Hank's buffer solution containing 25 mM glucose and with 10 mM HEPES (pH 7.4), and then the assay buffer was replaced by an assay buffer to which the test compound was added. After adding [^3H] taurocholate to a final concentration of 8 μM, the cells were incubated at 37° C. for 60 minutes. [^3H] taurocholate was allowed to be incorporated in Cos 7 cells through human IBAT or rat IBAT. The reaction was stopped by washing twice with a buffer prepared by adding 1 mM taurocholate to the assay buffer and lyzing the cells with 0.2M NaOH. Measurement of radioactivity was carried out by introducing the cell lyzate in 4 ml of liquid scintillation cocktail, stirring the mixture well, and then measuring the radioactivity by a scintillation counter.

Data set [5] deals with Cholic acid-loaded rat model. Kind of data set: Bile acid-decreasing effect in portal vein of rats loaded with cholic acid (Test Example 2). The note with it: 0.1 mg/kg oral with cholic acid 200 mg/kg, portal vein blood after 2 hours. Format: in vivo. On the procedure:
Bile Acid-Decreasing Effect in Portal Vein of Rats Loaded With Cholic Acid
In this test example, the test for confirming the bile acid-decreasing effect in portal vein of cholic acid-loaded rats was carried out according to the method described in Pharmacology and Therapeutics [Jpn Pharmacol. Ther., Vol. 24 Supplement, 1996, 103 (S-577)-110 (S-584)].
That is, 7 to 9 weeks old SD (IGS) rats were starved on the day before the test and thereafter. […] After 2 hours from the administration, a sample of blood was taken from a portal vein and total serum bile acid level was measured to study the effect of the test compound (n=6). Further, as a control group, a group (n=6) loaded with cholic acid (200 mg/kg) only was prepared and the same test procedure was followed. A commercially available kit (trade name: SOTANJUSAN-TEST WAKO-(SOTANJUSAN=total bile acid), manufactured by WAKO PURE CHEMICAL […], LTD.) was used for the measurement of bile acid. Assuming the value of the control group, which is a group in which no test compound was used, as 100%, the rate of decrease (percentage (%) of decrease) of the bile acid level when a fixed amount of the test compound was used was determined.

Data set [6] deals with Caco 2 cells. Kind of data set: Toxicity with respect to alimentary canal: cytotoxicity to Caco 2, LDH activity (Test Example 12). Format: cell-based, human. The note with it: LDH activity after 2 hours, relative to cytolytic agent = 100%. The method, then: Toxicity With Respect to Alimentary Canal
To evaluate the toxicity of the compounds of the present invention to the alimentary canal, the cytotoxicity to Caco 2, which is a human originated small intestine epithelial cell line, was tested by referring to the method of Bestwick C S et al. [Biochimica et Biophysica Acta 1474: 47-55, 1999].
That is, Caco 2 cells (purchased from ATCC) were inoculated on a 96-well plate such that there were 10,000 cells/well [MEM-E medium, 10% FBS (Fetal Bovine Serum), 1% NEAA (Non Essential Amino Acid) solution, (both manufactured by GIBCO PHARMACEUTICAL COMPANY)]. After culturing for 48 hours, the test compounds were diluted with the culture medium and added to the respective wells. After 2 hours, 50 μl of the culture broth was collected and the LDH activity in the collected culture broth was measured by using an LDH activity measuring kit (CytoTox 96 Non-Radioactive Cytotoxicity Assay, manufactured by PROMEGA CORPORATION). Relative activities were calculated assuming the LDH activity as 100% when the Caco 2 cells were treated with the cytolytic agent and the obtained relative activities were taken as cytotoxicities to Caco 2 cell.

SMILES strings stand for the structures. A value given as a limit tells only on which side of the number the result lay.

As a reminder, the IC50 is the midpoint of a concentration-inhibition curve. Read a high IC50 as weaker potency.

In data set [1], `CCC(CC)CC(=O)c1c(C(=O)OC)c(-c2ccc(OC)c(OC)c2)c2c(OC)c(OC)c(OC)cc2c1O` [Compound E, Methyl 1-(3,4-dimethoxyphenyl)-3-(3-ethylvaleryl)-4-hydroxy-6,7,8-trimethoxy-2-naphthoate] gave an ALP of 1345 ± 145 IU/L, an ALT of 180 ± 68 IU/L and an AST of 280 ± 72 IU/L. In data set [2], this molecule had an ALT of 46 ± 3 IU/L and an AST of 105 ± 11 IU/L.
Taken in the same sequence, the figures for `CCC(CC)CC(=O)c1c(C(=O)OC)c(-c2ccc(OC)c(OC)c2)c2c(OC)c(OC)c(OC)cc2c1OC1OC(C(=O)O)C(O)C(O)C1O` [Compound F, {1-O-[4-(3,4-dimethoxyphenyl)-2-(3-ethyl-pentanoyl)-5,6,7-trimethoxy-3-(methoxycarbonyl)naphthalen-1-yl]-β-D-glucopyranosido}uronic acid] were 1423 ± 115 IU/L, 214 ± 53 IU/L, 320 ± 66 IU/L, 58 ± 5 IU/L and 123 ± 16 IU/L.
With `CCCCC1(CCCC)CS(=O)(=O)c2ccc(N(C)C)cc2C(c2cccc(NC(=S)NCCC[N+]34CCC(CC3)CC4)c2)N1` (stereo not drawn) [Example 9, 1-(3-{3-[3,3-Dibutyl-7-dimethylamino-1,1-dioxo-2,3,4,5-tetrahydro-1,4-benzothiazepin-5-yl)phenyl]thioureido}-propyl)-1-azoniabicyclo[2.2.2]octane bromide], the IC50 in data set [3] turned out to be 76 nM; in data set [4] it was 36 nM.
For the molecule `CCCCC1(CCCC)CS(=O)(=O)c2ccc(N(C)C)cc2C(c2cccc(NC(=S)Nc3ccc(C[N+]45CCC(CC4)CC5)cc3)c2)N1.[Br-]` (stereo not drawn) [Example 3695], in data set [5] (HCO-60 0.1%), the “Rate of decrease (%) of bile acid” value is reported as 23%. Moreover, the half-inhibitory concentration (IC50) in data set [3] stood at 37 nM; in data set [4], 5 nM. For the same molecule, the “Toxicity (%) to Caco 2” value in data set [6] (3 μM), in data set [6] (10 μM) and in data set [6] (30 μM) was under 1% each time.
Take `CCCCC1(CCCC)CS(=O)(=O)c2ccc(N(C)C)cc2C(c2cccc(NC(=S)CCCCC[N+]34CCC(c5ccccc5)(CC3)CC4)c2)N1` (stereo not drawn) [Example 3853]: in data set [5] (HCO-60 0.1%), the “Rate of decrease (%) of bile acid” value is on record as 36%. Besides, the IC50 in data set [3] came to 28 nM; in data set [4], 9 nM. For the same molecule, the “Toxicity (%) to Caco 2” value in data set [6] (3 μM), in data set [6] (10 μM) and in data set [6] (30 μM) was under 1% throughout.
As to `CCCCC1(CCCC)CS(=O)(=O)c2ccc(N(C)C)cc2C(c2cccc(NC(=S)CCCCCCC[N+]34CCC(CC3)CC4)c2)N1` (stereo not drawn) [Example 3932], the “Rate of decrease (%) of bile acid” value in data set [5] (Tween 20 0.05%) worked out at 30%. For the same molecule, the values for the IC50 in data set [3] and in data set [4] were 36 nM and 9 nM, respectively.
